In data set [1] the target is baculovirus-expressed JAK2 kinase (Homo sapiens, UniProt O60674). As to the kind of experiment: biochemical. To be noted: 0.2 μM ATP; read-out: JAK2 Potency. In outline:
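Time-resolved fluorescence kinase assay using 15 ng/mL baculovirus-expressed JAK2 on Neutravidin-captured biotinylated 15-mer peptide substrate, reaction 20 min at room temperature. IC50 from percent inhibition versus log concentration, sigmoidal variable-slope fit.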

The target in data set [2] is baculovirus-expressed ALK (Homo sapiens, UniProt Q9UM73). As to the kind of experiment: ALK kinase inhibition, TRF/ELISA. To be noted: read-out: ALK Potency. It is filed as biochemical. A digest of the protocol:
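Plates were coated with GST-PLC-γ substrate (10 μg/mL) and the reaction was started with 30 ng/mL ALK, running 15 min at 37° C. Phosphotyrosine was detected by time-resolved fluorescence with Eu-labeled PT66 antibody. IC50s came from variable-slope sigmoidal fits of percent inhibition versus log concentration.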

baculovirus-expressed ALK, sequence (Q9UM73 19-1620): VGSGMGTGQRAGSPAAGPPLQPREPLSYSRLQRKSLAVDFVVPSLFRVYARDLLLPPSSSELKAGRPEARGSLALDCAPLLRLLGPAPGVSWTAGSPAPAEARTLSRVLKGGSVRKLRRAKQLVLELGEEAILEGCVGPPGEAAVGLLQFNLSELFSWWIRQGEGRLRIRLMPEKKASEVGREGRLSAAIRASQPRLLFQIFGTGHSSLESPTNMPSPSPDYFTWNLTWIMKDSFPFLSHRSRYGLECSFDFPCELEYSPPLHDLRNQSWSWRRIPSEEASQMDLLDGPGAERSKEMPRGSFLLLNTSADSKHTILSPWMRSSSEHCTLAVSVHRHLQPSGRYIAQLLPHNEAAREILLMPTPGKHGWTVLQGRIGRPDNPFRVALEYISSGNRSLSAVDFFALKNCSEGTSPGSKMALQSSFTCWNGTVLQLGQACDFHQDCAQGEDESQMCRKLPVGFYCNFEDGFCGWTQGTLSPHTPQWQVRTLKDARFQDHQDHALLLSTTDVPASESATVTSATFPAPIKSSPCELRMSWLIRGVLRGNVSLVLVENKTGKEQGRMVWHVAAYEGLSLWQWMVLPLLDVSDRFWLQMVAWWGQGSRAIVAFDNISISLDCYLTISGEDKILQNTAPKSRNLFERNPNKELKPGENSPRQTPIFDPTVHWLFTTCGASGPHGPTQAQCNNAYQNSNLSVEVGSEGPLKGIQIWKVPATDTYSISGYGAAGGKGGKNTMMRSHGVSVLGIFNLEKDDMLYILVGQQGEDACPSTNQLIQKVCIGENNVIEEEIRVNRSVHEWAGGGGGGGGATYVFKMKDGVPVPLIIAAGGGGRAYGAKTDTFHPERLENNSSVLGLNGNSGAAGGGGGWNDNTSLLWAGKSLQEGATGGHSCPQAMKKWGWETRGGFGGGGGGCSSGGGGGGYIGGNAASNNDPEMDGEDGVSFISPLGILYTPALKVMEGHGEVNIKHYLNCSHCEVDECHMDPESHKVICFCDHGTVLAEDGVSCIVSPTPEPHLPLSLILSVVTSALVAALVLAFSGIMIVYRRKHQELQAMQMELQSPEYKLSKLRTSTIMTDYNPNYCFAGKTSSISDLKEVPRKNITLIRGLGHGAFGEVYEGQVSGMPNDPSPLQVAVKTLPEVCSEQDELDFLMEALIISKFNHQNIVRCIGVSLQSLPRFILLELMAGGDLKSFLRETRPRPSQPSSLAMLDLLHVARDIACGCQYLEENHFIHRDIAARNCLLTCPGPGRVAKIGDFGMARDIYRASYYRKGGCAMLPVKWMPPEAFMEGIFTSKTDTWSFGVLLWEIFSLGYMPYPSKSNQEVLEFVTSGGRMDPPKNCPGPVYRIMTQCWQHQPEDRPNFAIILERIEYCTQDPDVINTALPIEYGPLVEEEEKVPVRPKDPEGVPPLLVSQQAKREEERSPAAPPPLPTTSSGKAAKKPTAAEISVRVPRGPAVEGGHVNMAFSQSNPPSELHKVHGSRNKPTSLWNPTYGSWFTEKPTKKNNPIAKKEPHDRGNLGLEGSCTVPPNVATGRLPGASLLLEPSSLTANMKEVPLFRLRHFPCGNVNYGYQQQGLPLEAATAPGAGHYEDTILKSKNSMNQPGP
baculovirus-expressed JAK2 kinase, sequence (O60674 whole entry): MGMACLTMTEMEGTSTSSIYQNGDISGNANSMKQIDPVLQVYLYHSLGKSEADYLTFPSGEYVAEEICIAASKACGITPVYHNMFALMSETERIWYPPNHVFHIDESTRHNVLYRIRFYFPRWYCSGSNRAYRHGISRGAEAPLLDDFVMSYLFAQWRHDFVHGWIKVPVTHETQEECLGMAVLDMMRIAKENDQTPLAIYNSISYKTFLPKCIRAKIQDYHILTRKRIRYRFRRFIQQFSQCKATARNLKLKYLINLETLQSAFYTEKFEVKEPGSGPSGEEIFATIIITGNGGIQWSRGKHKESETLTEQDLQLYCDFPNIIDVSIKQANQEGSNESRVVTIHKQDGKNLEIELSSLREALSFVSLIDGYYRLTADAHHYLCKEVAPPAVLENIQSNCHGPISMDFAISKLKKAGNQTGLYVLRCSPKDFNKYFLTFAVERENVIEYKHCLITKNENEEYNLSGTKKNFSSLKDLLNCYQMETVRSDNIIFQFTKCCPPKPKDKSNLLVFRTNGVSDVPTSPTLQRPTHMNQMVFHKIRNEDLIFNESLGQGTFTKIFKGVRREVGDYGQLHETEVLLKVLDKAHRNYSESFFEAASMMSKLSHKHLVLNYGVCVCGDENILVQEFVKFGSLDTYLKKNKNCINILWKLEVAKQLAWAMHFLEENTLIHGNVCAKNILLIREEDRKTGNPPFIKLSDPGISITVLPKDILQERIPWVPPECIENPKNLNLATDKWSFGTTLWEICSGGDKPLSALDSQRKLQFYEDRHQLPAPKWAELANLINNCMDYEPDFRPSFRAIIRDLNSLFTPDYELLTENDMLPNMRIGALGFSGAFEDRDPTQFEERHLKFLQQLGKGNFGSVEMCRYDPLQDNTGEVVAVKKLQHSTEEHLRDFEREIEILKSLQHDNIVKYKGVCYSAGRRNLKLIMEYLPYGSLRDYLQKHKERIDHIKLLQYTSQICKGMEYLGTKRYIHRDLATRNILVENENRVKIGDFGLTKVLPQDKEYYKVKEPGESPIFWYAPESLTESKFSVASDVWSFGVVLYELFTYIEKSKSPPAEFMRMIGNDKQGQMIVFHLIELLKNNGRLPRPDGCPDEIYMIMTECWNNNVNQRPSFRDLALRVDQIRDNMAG

The melting point is the temperature of the solid-liquid transition. In turn, `NC(=O)[C@@H]1[C@H](Nc2c(Br)cnc3[nH]c(-c4cccnc4N4CCOCC4)nc23)[C@H]2C=C[C@@H]1C2` [Compound CII, (1S,2S,3R,4R)-3-[6-Bromo-2-(2-morpholin-4-yl-pyridin-3-yl)-3H-imidazo[4,5-b]pyridin-7-ylamino]-bicyclo[2.2.1]hept-5-ene-2-carboxylic acid amide] registered a melting point of 150 °C. Besides, in data set [1], the IC50 was 1000 to 10000 nM. Besides, the IC50 in data set [2] lay in the range of 1000 to 10000 nM.
`COc1cc(CN2CCN(C(C)=O)CC2)ccc1-c1nc2c(N[C@H]3[C@@H](C(N)=O)[C@@H]4C=C[C@H]3C4)c(Cl)cnc2[nH]1` [Compound LI] returned a melting point of 109 to 113 °C. In addition, the IC50 in data set [1] is under 100 nM. Besides, in data set [2], the IC50 is under 100 nM.
For the compound `NC(=O)[C@@H]1[C@H](Nc2ccnc3[nH]c(-c4ccc(N5CCOCC5)cc4)nc23)[C@H]2C=C[C@@H]1C2` [Compound LXXXIX, (1S,2S,3R,4R)-3-[2-(4-Morpholin-4-yl-phenyl)-3H-imidazo[4,5-b]pyridin-7-ylamino]-bicyclo[2.2.1]hept-5-ene-2-carboxylic acid amide], the melting point fell in the range of 240 to 244 °C. Further, the IC50 in data set [1] lay in the range of 1000 to 10000 nM. Moreover, the IC50 in data set [2] was over 10000 nM.
The like results for `NC(=O)[C@@H]1[C@H](Nc2ccnc3[nH]c(-c4cccc(CN5CCOCC5)c4)nc23)[C@H]2C=C[C@@H]1C2` [Compound XCI, (1S,2S,3R,4R)-3-[2-(3-Morpholin-4-ylmethyl-phenyl)-3H-imidazo[4,5-b]pyridin-7-ylamino]-bicyclo[2.2.1]hept-5-ene-2-carboxylic acid amide] were, in that order, 240 to 244 °C, 1000 to 10000 nM and over 10000 nM.
`NC(=O)[C@@H]1[C@H](Nc2c(Br)cnc3[nH]c(-c4ccsc4)nc23)[C@H]2C=C[C@@H]1C2` [Compound CXI, (1S,2S,3R,4R)-3-(6-Bromo-2-thiophen-3-yl-3H-imidazo[4,5-b]pyridin-7-ylamino)-bicyclo[2.2.1]hept-5-ene-2-carboxylic acid amide] had a melting point of 238 to 241 °C. For the same compound, the IC50 in data set [1] was under 100 nM. Besides, the IC50 in data set [2] was under 100 nM.
`NC(=O)[C@@H]1[C@H](Nc2ccnc3[nH]c(-c4ccc(CN5CCOCC5)cc4)nc23)[C@H]2C=C[C@@H]1C2` [Compound XC, (1S,2S,3R,4R)-3-[2-(4-Morpholin-4-ylmethyl-phenyl)-3H-imidazo[4,5-b]pyridin-7-ylamino]-bicyclo[2.2.1]hept-5-ene-2-carboxylic acid amide]: the melting point was 240 to 244 °C. In data set [1], the IC50 was 1000 to 10000 nM. Further, the IC50 in data set [2] is over 10000 nM.
As to `COc1cc(CN2CC[C@H](O)C2)ccc1-c1nc2c(N[C@H]3[C@@H](C(N)=O)[C@@H]4C=C[C@H]3C4)c(Cl)cnc2[nH]1` [Compound LV, (1S,2S,3R,4R)-3-{6-Chloro-2-[4-((S)-3-hydroxy-pyrrolidin-1-ylmethyl)-2-methoxyphenyl]-3H-imidazo[4,5-b]pyridine-7-ylamino}-bicyclo[2.2.1]hept-5-ene-2-carboxylic acid amide], the melting point lay in the range of 205 to 208 °C. The IC50 in data set [1] was under 100 nM. Moreover, the IC50 in data set [2] is under 100 nM.
`COC[C@@H](O)CN1CCC(c2ccc(-c3nc4c(N[C@H]5[C@@H](C(N)=O)[C@@H]6C=C[C@H]5C6)c(Cl)cnc4[nH]3)c(OC)c2)CC1` [Compound CXIX, (1S,2S,3R,4R)-3-(6-Chloro-2-{4-[1-((S)-2-hydroxy-3-methoxy-propyl)-piperidin-4-yl]-2-methoxy-phenyl}-3H-imidazo[4,5-b]pyridin-7-ylamino)-bicyclo[2.2.1]hept-5-ene-2-carboxylic acid amide]: the melting point lay within 189 to 191 °C. In addition, the IC50 in data set [1] was under 100 nM. Besides, in data set [2], the IC50 was under 100 nM.
As for `COc1cc(CN2CCN(C[C@@H](C)O)CC2)ccc1-c1nc2c(N[C@H]3[C@@H](C(N)=O)[C@@H]4C=C[C@H]3C4)c(Cl)cnc2[nH]1` [Compound XLIV, (1S,2S,3R,4R)-3-(6-Chloro-2-{4-[4-((R)-2-hydroxypropyl)-piperazin-1-ylmethyl]-2-methoxyphenyl}-3H-imidazo[4,5-b]pyridine-7-ylamino)-bicyclo[2.2.1]hept-5-ene-2-carboxylic acid amide], the melting point was 157 to 159 °C. In addition, the IC50 in data set [1] was under 100 nM. In data set [2], the IC50 is under 100 nM.
`COc1ccc(-c2nc3c(N[C@H]4[C@@H](C(N)=O)[C@@H]5C=C[C@H]4C5)c(Cl)cnc3[nH]2)c(C2CCNCC2)c1` [Compound XXX, (1S,2S,3R,4R)-3-[6-Chloro-2-(4-methoxy-2-piperidin-4-yl-phenyl)-3H-imidazo[4,5-b]pyridine-7-ylamino]-bicyclo[2.2.1]hept-5-ene-2-carboxylic acid amide] came in with a melting point of 199 to 200 °C. Further, the IC50 in data set [1] lay in the range of 100 to 1000 nM. Further, in data set [2], the IC50 lay in the range of 1000 to 10000 nM.
For the compound `NC(=O)[C@@H]1[C@H](Nc2c(Br)cnc3[nH]c(-c4ccc(N5CCOCC5)nc4)nc23)[C@H]2C=C[C@@H]1C2` [Compound CXII, (1S,2S,3R,4R)-3-[6-Bromo-2-(6-morpholin-4-yl-pyridin-3-yl)-3H-imidazo[4,5-b]pyridin-7-ylamino]-bicyclo[2.2.1]hept-5-ene-2-carboxylic acid amide], the melting point was in the range of 288 to 290 °C. The IC50 in data set [1] was under 100 nM. Also, in data set [2], the IC50 was under 100 nM.
Consider `CN1CCN(Cc2ccc(-c3nc4c(N[C@H]5[C@@H](C(N)=O)[C@@H]6C=C[C@H]5C6)c(Br)cnc4[nH]3)cc2)CC1` [Compound C], for which the melting point lay within 208 to 209 °C. Also, the IC50 in data set [1] is under 100 nM. The IC50 in data set [2] is under 100 nM.
`CN(C)c1ccc(-c2nc3c(N[C@H]4[C@@H](C(N)=O)[C@@H]5C=C[C@H]4C5)ccnc3[nH]2)cc1` [Compound LXXXVI, (1S,2S,3R,4R)-3-[2-(4-Dimethylamino-phenyl)-3H-imidazo[4,5-b]pyridin-7-ylamino]-bicyclo[2.2.1]hept-5-ene-2-carboxylic acid amide] had a melting point of 245 to 251 °C. Moreover, in data set [1], the IC50 fell in the range of 1000 to 10000 nM. Further, the IC50 in data set [2] is over 10000 nM.
With `NC(=O)[C@@H]1[C@H](Nc2c(Cl)cnc3[nH]c(-c4cccc(C(=O)NC(CO)C(=O)O)c4)nc23)[C@H]2C=C[C@@H]1C2` (stereo partly drawn) [Compound CCXXIX, 2-(3-(7-((1R,2R,3S,4S)-3-carbamoylbicyclo(2.2.1)hept-5-en-2-ylamino)-6-chloro-3H-imidazo[4,5-b]pyridine-2-yl)benzamido)-3-hydroxypropanoic acid], the melting point was 243 °C. In addition, the IC50 in data set [1] was under 100 nM. The IC50 in data set [2] lay in the range of 1000 to 10000 nM.
`NC(=O)[C@@H]1[C@H](Nc2c(Cl)cnc3[nH]c(-c4cccc(C(=O)N5CCNC(C(=O)O)C5)c4)nc23)[C@H]2C=C[C@@H]1C2` (stereo partly drawn) [Compound CCXXV, 4-(3-(7-((1R,2R,3S,4S)-3-carbamoylbicyclo[2.2.1]hept-5-en-2-ylamino)-6-chloro-3H-imidazo[4,5-b]pyridine-2-yl)benzoyl)piperazine-2-carboxylic acid] registered a melting point of 261 °C. For the same compound, the IC50 in data set [1] is under 100 nM. Also, the IC50 in data set [2] lay within 100 to 1000 nM.
The like results for `NC(=O)[C@@H]1[C@H](Nc2c(Br)cnc3[nH]c(-c4ccoc4)nc23)[C@H]2C=C[C@@H]1C2` [Compound CVIII, (1S,2S,3R,4R)-3-(6-Bromo-2-furan-3-yl-3H-imidazo[4,5-b]pyridin-7-ylamino)-bicyclo[2.2.1]hept-5-ene-2-carboxylic acid amide] were, in that order, 231 to 232 °C, under 100 nM and 100 to 1000 nM.
In turn, `Cn1cc(-c2nc3c(N[C@H]4[C@@H](C(N)=O)[C@@H]5C=C[C@H]4C5)c(Br)cnc3[nH]2)cn1` [Compound LXXXV, (1S,2S,3R,4R)-3-[6-Bromo-2-(1-methyl-1H-pyrazol-4-yl)-3H-imidazo[4,5-b]pyridin-7-ylamino]-bicyclo[2.2.1]hept-5-ene-2-carboxylic acid amide] yielded a melting point of 255 to 258 °C. The IC50 in data set [1] is under 100 nM. Also, the IC50 in data set [2] was in the range of 100 to 1000 nM.
The compound `COC[C@H](O)CN1CCC(c2ccc(-c3nc4c(N[C@H]5[C@@H](C(N)=O)[C@@H]6C=C[C@H]5C6)c(Cl)cnc4[nH]3)c(OC)c2)CC1` [Compound LIV] returned a melting point of 116 to 122 °C. Besides, the IC50 in data set [1] was under 100 nM. Further, the IC50 in data set [2] was under 100 nM.
The compound `CN1CCN(c2ccc(-c3nc4c(N[C@H]5[C@@H](C(N)=O)[C@@H]6C=C[C@H]5C6)ccnc4[nH]3)cc2)CC1` [Compound LXXXVIII, (1S,2S,3R,4R)-3-{2-[4-(4-Methyl-piperazin-1-yl)-phenyl]-3H-imidazo[4,5-b]pyridin-7-ylamino}-bicyclo[2.2.1]hept-5-ene-2-carboxylic acid amide] registered a melting point of 220 to 222 °C. In addition, the IC50 in data set [1] lay within 1000 to 10000 nM. Besides, the IC50 in data set [2] is 1000 to 10000 nM.
`COc1cc(N2CCC(N3CCN(C)CC3)CC2)ccc1-c1nc2c(N[C@H]3[C@@H](C(N)=O)[C@@H]4C=C[C@H]3C4)c(Br)cnc2[nH]1` [Compound XCVIII, (1S,2S,3R,4R)-3-(6-Bromo-2-{2-methoxy-4-[4-(4-methyl-piperazin-1-yl)-piperidin-1-yl]-phenyl}-3H-imidazo[4,5-b]pyridin-7-ylamino)-bicyclo[2.2.1]hept-5-ene-2-carboxylic acid amide] registered a melting point of 185 to 195 °C. The IC50 in data set [1] was under 100 nM. Besides, the IC50 in data set [2] is under 100 nM.

The values are drawn from patent US9238656B2, “Imidazo[4,5-b]pyridine derivatives as ALK and JAK modulators for the treatment of proliferative disorders” (priority 2012, dated 2016).
